In brackets after ≈: the same amount, converted by molar mass.
Key:
Homo sapiens = species: Homo sapiens; assay: Selectivity ratio of Ki for human adenosine A1 receptor to Ki for human adenosine A2A receptor
Adenosine receptor A2a [1] = target: T1, Adenosine receptor A2a (Homo sapiens, UniProt P29274); assay: Antagonist activity at human adenosine A2A receptor assessed as inhibition of CGS-21680-stimulated cAMP production; format: functional
Adenosine receptor A2a [2] = target: T1, Adenosine receptor A2a; assay: Displacement of [3H]ZM241385 from human adenosine A2A receptor expressed in HEK293 cells; format: cell-based
Adenosine receptor A1 = target: T2, Adenosine receptor A1 (Homo sapiens, UniProt P30542); assay: Displacement of [3H]DPCPX from human adenosine A1 receptor expressed in HEK293 cells; format: cell-based
T2 sequence (P30542 whole entry): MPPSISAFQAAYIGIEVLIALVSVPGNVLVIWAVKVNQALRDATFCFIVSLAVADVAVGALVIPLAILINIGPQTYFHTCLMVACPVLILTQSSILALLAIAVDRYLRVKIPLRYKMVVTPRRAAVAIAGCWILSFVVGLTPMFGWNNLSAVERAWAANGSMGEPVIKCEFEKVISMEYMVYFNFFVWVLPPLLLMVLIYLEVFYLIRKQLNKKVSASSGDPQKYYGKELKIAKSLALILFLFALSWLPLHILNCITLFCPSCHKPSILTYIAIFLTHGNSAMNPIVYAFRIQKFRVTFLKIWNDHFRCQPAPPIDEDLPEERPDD

[3] = Solubility at pH >=2; format: physicochemical
[4] = Solubility in phosphate buffer at pH 7.2; format: physicochemical
[5] = Solubility in phosphate buffered saline; format: physicochemical

T1 sequence (P29274 whole entry): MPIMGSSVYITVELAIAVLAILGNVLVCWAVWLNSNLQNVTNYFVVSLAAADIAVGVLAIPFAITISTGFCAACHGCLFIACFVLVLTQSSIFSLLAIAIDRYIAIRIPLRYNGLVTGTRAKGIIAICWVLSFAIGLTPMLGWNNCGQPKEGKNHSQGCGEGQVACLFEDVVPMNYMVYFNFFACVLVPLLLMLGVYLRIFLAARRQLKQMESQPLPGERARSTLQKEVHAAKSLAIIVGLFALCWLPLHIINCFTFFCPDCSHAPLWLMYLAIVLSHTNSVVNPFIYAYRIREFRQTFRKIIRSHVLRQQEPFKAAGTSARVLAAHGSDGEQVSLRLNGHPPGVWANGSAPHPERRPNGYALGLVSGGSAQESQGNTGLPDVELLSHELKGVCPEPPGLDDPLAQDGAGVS

Row | SMILES | Ratio Ki (Homo sapiens) | IC50 (Adenosine receptor A2a [1]) | Ki (Adenosine receptor A2a [2]) | Ki (Adenosine receptor A1) | solubility [3] | solubility [4] | solubility [5]
1 | COC[C@H]1CCCN1c1cc(NC(C)=O)nc(-n2nc(C)cc2C)n1 | 34 | – | – | – | – | – | –
2 | CC(=O)Nc1cc(N2CCCC2=O)nc(-n2nc(C)cc2C)n1 | 76 | 1000 nM | 12 nM | 913 nM | – | – | –
3 | CC(=O)Nc1cc(N2CCN(C)CC2)nc(-n2nc(C)cc2C)n1 | – | – | 1870 nM | > 10000 nM | – | – | –
4 | COC(=O)[C@H]1CCCN1c1cc(NC(C)=O)nc(-n2nc(C)cc2C)n1 | 14 | – | 205 nM | 2930 nM | – | – | –
5 | CC(=O)Nc1cc(N2CCC[C@@H]2COc2ccccn2)nc(-n2nc(C)cc2C)n1 | 1.5 | – | 40 nM | 64 nM | – | – | –
6 | COC(=O)[C@@H]1CCCN1c1cc(NC(C)=O)nc(-n2nc(C)cc2C)n1 | – | – | > 10000 nM | – | – | – | –
7 | CCOCC1CCCN1c1cc(NC(C)=O)nc(-n2nc(C)cc2C)n1 (centres undefined) | 9 | – | 455 nM | 4190 nM | – | – | –
8 | CC(=O)Nc1cc(-c2ccccc2O)nc(-n2nc(C)cc2C)n1 | – | – | 1.9 nM | – | – | – | –
9 | COC[C@H]1CCCN1c1cc(NC(=O)NC(C)C)nc(-n2nc(C)cc2C)n1 | 29 | – | 43 nM | 1280 nM | – | – | –
10 | COc1cncc(-c2cc(NC(C)=O)nc(-n3nc(C)cc3C)n2)c1 | 82 | 85 nM | – | – | 10 µg/mL (≈ 29.6 µM) | – | –
11 | COC[C@H]1CCCN1c1cc(N)nc(-n2nc(C)cc2C)n1 | 9.5 | – | 261 nM | 2470 nM | – | – | –
12 | CC(=O)Nc1cc(N2CCOCC2)nc(-n2nc(C)cc2C)n1 | 26 | – | 313 nM | 8120 nM | – | – | –
13 | COC[C@H]1C[C@H](OC)CN1c1cc(NC(C)=O)nc(-n2nc(C)cc2C)n1 | 47 | – | 7.5 nM | 352 nM | – | – | –
14 | CC(=O)Nc1cc(N2CCCC2C)nc(-n2nc(C)cc2C)n1 (centres undefined) | 37 | – | 28 nM | 1040 nM | – | – | –
15 | COC[C@H]1CCCN1c1cc(NC(C)=O)nc(-c2cccs2)n1 | 4.3 | – | 47 nM | 203 nM | – | – | –
16 | CC(=O)Nc1cc(N2CCCCC2)nc(-n2nc(C)cc2C)n1 | 43 | – | 78 nM | 3360 nM | – | – | –
17 | CC(=O)Nc1cc(N2CCCC2)nc(-n2nc(C)cc2C)n1 | 45 | – | 110 nM | 4950 nM | – | – | –
18 | COC[C@@H]1CCC(C)N1c1cc(NC(C)=O)nc(-n2nc(C)cc2C)n1 (some centres undefined) | 35 | – | 47 nM | 1640 nM | – | – | –
19 | COCCC1CCCCN1c1cc(NC(C)=O)nc(-n2nc(C)cc2C)n1 (single isomer, unassigned) | 17 | – | 275 nM | 4690 nM | – | – | –

Row | SMILES | Ratio Ki (Homo sapiens) | IC50 (Adenosine receptor A2a [1]) | Ki (Adenosine receptor A2a [2]) | Ki (Adenosine receptor A1) | solubility [3] | solubility [4] | solubility [5]
20 | COC[C@H]1CCCN1c1cc(NC(C)=O)nc(-c2ccc(C)o2)n1 | 4 | – | 2.7 nM | 10.5 nM | – | – | –
21 | CC(=O)Nc1cc(N2CCC[C@H]2COc2ccccn2)nc(-n2nc(C)cc2C)n1 | 28 | – | 439 nM | 12100 nM | – | – | –
22 | COC[C@@H]1CCCN1c1cc(NC(C)=O)nc(-c2ccccn2)n1 | 2.5 | – | 50 nM | 125 nM | – | – | –
23 | COC[C@H]1CCCN1c1cc(NC(=O)CC(C)C)nc(-n2nc(C)cc2C)n1 | 2 | – | 50 nM | 92 nM | – | – | –
24 | COC[C@H]1CCCN1c1cc(NC(C)=O)nc(-c2nccs2)n1 | 7.5 | – | 20 nM | 150 nM | – | – | –
25 | COC[C@H]1C[C@@H](OC)CN1c1cc(NC(C)=O)nc(-n2nc(C)cc2C)n1 | 27 | – | 23 nM | 620 nM | – | – | –
26 | COCC1CCCN1c1cc(NC(C)=O)nc(-n2nc(C)cc2C)n1 (centres undefined) | 35 | – | 9 nM | 320 nM | – | – | –
27 | CC(=O)Nc1cc(N2CCCC2CO)nc(-n2nc(C)cc2C)n1 (single isomer, unassigned) | 59 | – | 25.8 nM | 1530 nM | – | – | –
28 | CCC(=O)Nc1cc(N2CCC[C@@H]2COC)nc(-n2nc(C)cc2C)n1 | 11 | – | 5.9 nM | 64 nM | – | – | –
29 | COC[C@H]1CCCN1c1cc(NC(=O)OC)nc(-n2nc(C)cc2C)n1 | 50 | – | 19 nM | 960 nM | – | – | –
30 | COC[C@@H]1CCCN1c1cc(NC(C)=O)nc(-c2ccc(C)o2)n1 | 2 | – | 119 nM | 215 nM | – | – | –
31 | COC[C@@H]1CCCN1c1cc(NC(C)=O)nc(-n2nc(C)cc2C)n1 | 14 | – | 324 nM | 4470 nM | – | – | –
32 | COC[C@@H]1CCCN1c1cc(NC(C)=O)nc(-c2cccs2)n1 | 12 | – | 27 nM | 325 nM | – | – | –
33 | COC[C@@H]1CCCN1c1cc(NC(C)=O)nc(-c2nccs2)n1 | 23 | – | 15 nM | 354 nM | – | – | –
34 | CC(=O)Nc1cc(N2CCc3ccccc3C2)nc(-n2nc(C)cc2C)n1 | 77 | – | 4.2 nM | 323 nM | – | 10 µg/mL (≈ 27.6 µM) | –
35 | CCN(CC)c1cc(NC(C)=O)nc(-n2nc(C)cc2C)n1 | 49 | – | 92 nM | 4470 nM | – | – | –
36 | COC[C@H]1CCCN1c1cc(NC(C)=O)nc(-n2nc(C)cc2C)n1.Cl | – | – | – | – | – | – | > 6700 µg/mL
37 | COC[C@H]1CCCN1c1cc(NC(C)=O)nc(-c2ccccn2)n1 | 1.5 | – | 46 nM | 69 nM | – | – | –

— ChEMBL document CHEMBL1143380, “N-[6-amino-2-(heteroaryl)pyrimidin-4-yl]acetamides as A2A receptor antagonists with improved drug like properties and in vivo efficacy” (J Med Chem, 2009)
